System: 817829-284-R-J1-PDC complex spheroid viability
Assay: Anticancer human tumor 817829-284-R-J1-PDC patient-derived colon adenocarcinoma cell line growth inhibition [POLQ]
Settings: for IC50: curve of first compound; for viability, T/C: stronger effect = lower value
How it was run: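 Complex spheroid viability model combining PDC tumour cells with endothelial (HUVEC) and MSC stromal cells. Novobiocin, ART-558 or RP6685 were tested singly and in combination with standard and investigational anticancer drugs. Each was titrated in half-log steps from near clinical Cmax, or from 10 microM where Cmax was unknown.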

[1] = second compound 0.0316 µM, first compound 0.0316 µM
[2] = second compound 0.0316 µM, first compound 0.1 µM
[3] = second compound 0.0316 µM, first compound 0.316 µM
[4] = second compound 0.0316 µM, first compound 1 µM
[5] = second compound 0.0316 µM, first compound 3.16 µM
[6] = second compound 0.0316 µM, first compound 10 µM
[7] = second compound 0.1 µM, first compound 0.0316 µM
[8] = second compound 0.1 µM, first compound 0.1 µM
[9] = second compound 0.1 µM, first compound 0.316 µM
[10] = second compound 0.1 µM, first compound 1 µM
[11] = second compound 0.1 µM, first compound 3.16 µM
[12] = second compound 0.1 µM, first compound 10 µM
[13] = second compound 0.316 µM, first compound 0.0316 µM
[14] = second compound 0.316 µM, first compound 0.1 µM
[15] = second compound 0.316 µM, first compound 0.316 µM
[16] = second compound 0.316 µM, first compound 1 µM
[17] = second compound 0.316 µM, first compound 3.16 µM
[18] = second compound 0.316 µM, first compound 10 µM
[19] = second compound 1 µM, first compound 0.0316 µM
[20] = second compound 1 µM, first compound 0.1 µM
[21] = second compound 1 µM, first compound 0.316 µM
[22] = second compound 1 µM, first compound 1 µM
[23] = second compound 1 µM, first compound 3.16 µM
[24] = second compound 1 µM, first compound 10 µM
[25] = second compound 3.16 µM, first compound 0.0316 µM
[26] = second compound 3.16 µM, first compound 0.1 µM
[27] = second compound 3.16 µM, first compound 0.316 µM
[28] = second compound 3.16 µM, first compound 1 µM
[29] = second compound 3.16 µM, first compound 3.16 µM
[30] = second compound 3.16 µM, first compound 10 µM
[31] = second compound 10 µM, first compound 0.0316 µM
[32] = second compound 10 µM, first compound 0.1 µM
[33] = second compound 10 µM, first compound 0.316 µM
[34] = second compound 10 µM, first compound 1 µM
[35] = second compound 10 µM, first compound 3.16 µM
[36] = second compound 10 µM, first compound 10 µM
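Note: spheroids exposed to compounds for 7 days.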
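Throughout, for viability, T/C: 100% = DMSO vehicle-treated spheroids.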

COc1cccc2c1C(=O)c1c(O)c3c(c(O)c1C2=O)CC(O)(C(=O)CO)CC3OC1CC(N)C(O)C(C)O1 (stereo not drawn) + Cc1cccc(N(C)C(=O)C2C(O)CCN2c2nc(C)cc(C(F)(F)F)c2C#N)c1
IC50 (second compound 0.0316 µM): < 0.0316 µM
IC50 (second compound 0.1 µM): < 0.0316 µM
IC50 (second compound 0.316 µM): < 0.0316 µM
IC50 (second compound 1 µM): < 0.0316 µM
IC50 (second compound 3.16 µM): < 0.0316 µM
IC50 (second compound 10 µM): < 0.0316 µM
viability, T/C [1]: 20.6%
viability, T/C [2]: 18.4%
viability, T/C [3]: 6.01%
viability, T/C [4]: 0.9%
viability, T/C [5]: 0.17%
viability, T/C [6]: 0.48%
viability, T/C [7]: 21.8%
viability, T/C [8]: 15.9%
viability, T/C [9]: 7.06%
viability, T/C [10]: 0.26%
viability, T/C [11]: 0.22%
viability, T/C [12]: 0.58%
viability, T/C [13]: 20.2%
viability, T/C [14]: 17.8%
viability, T/C [15]: 6.56%
viability, T/C [16]: 0.38%
viability, T/C [17]: 0.19%
viability, T/C [18]: 0.58%
viability, T/C [19]: 21.2%
viability, T/C [20]: 14.6%
viability, T/C [21]: 6.03%
viability, T/C [22]: 0.54%
viability, T/C [23]: 0.29%
viability, T/C [24]: 0.51%
viability, T/C [25]: 20.1%
viability, T/C [26]: 17.9%
viability, T/C [27]: 3.35%
viability, T/C [28]: 0.34%
viability, T/C [29]: 0.32%
viability, T/C [30]: 0.6%
viability, T/C [31]: 17.4%
viability, T/C [32]: 12.3%
viability, T/C [33]: 4.14%
viability, T/C [34]: 0.48%
viability, T/C [35]: 0.3%
viability, T/C [36]: 0.5%

COc1cccc(OCCCN)c1-c1cc(Nc2cnc(C#N)cn2)n[nH]1 + Cc1cccc(N(C)C(=O)C2C(O)CCN2c2nc(C)cc(C(F)(F)F)c2C#N)c1
IC50 (second compound 0.0316 µM): 0.0048 µM
IC50 (second compound 0.1 µM): 0.00563 µM
IC50 (second compound 0.316 µM): 0.00568 µM
IC50 (second compound 1 µM): 0.00528 µM
IC50 (second compound 3.16 µM): 0.00483 µM
IC50 (second compound 10 µM): 0.00522 µM
viability, T/C (second compound 0.0316 µM, first compound 0.00316 µM): 70.3%
viability, T/C (second compound 0.0316 µM, first compound 0.01 µM): 14.5%
viability, T/C [1]: 5.94%
viability, T/C [2]: 4.36%
viability, T/C [3]: 4.2%
viability, T/C [4]: 2.81%
viability, T/C (second compound 0.1 µM, first compound 0.00316 µM): 86.8%
viability, T/C (second compound 0.1 µM, first compound 0.01 µM): 13.4%
viability, T/C [7]: 5.69%
viability, T/C [8]: 4.81%
viability, T/C [9]: 4.14%
viability, T/C [10]: 2.6%
viability, T/C (second compound 0.316 µM, first compound 0.00316 µM): 84.9%
viability, T/C (second compound 0.316 µM, first compound 0.01 µM): 16.4%
viability, T/C [13]: 4.73%
viability, T/C [14]: 4.19%
viability, T/C [15]: 4.39%
viability, T/C [16]: 3.1%
viability, T/C (second compound 1 µM, first compound 0.00316 µM): 78%
viability, T/C (second compound 1 µM, first compound 0.01 µM): 15.3%
viability, T/C [19]: 5.38%
viability, T/C [20]: 4.93%
viability, T/C [21]: 3.71%
viability, T/C [22]: 3.25%
viability, T/C (second compound 3.16 µM, first compound 0.00316 µM): 69.9%
viability, T/C (second compound 3.16 µM, first compound 0.01 µM): 16%
viability, T/C [25]: 5.86%
viability, T/C [26]: 5.17%
viability, T/C [27]: 4.05%
viability, T/C [28]: 2.85%
viability, T/C (second compound 10 µM, first compound 0.00316 µM): 76.6%
viability, T/C (second compound 10 µM, first compound 0.01 µM): 15.7%
viability, T/C [31]: 5.87%
viability, T/C [32]: 4.92%
viability, T/C [33]: 4.34%
viability, T/C [34]: 3.21%

CCCS(=O)(=O)Nc1ccc(F)c(C(=O)c2c[nH]c3ncc(-c4ccc(Cl)cc4)cc23)c1F + COC1C(OC(N)=O)C(O)C(Oc2ccc3c(O)c(NC(=O)c4ccc(O)c(CC=C(C)C)c4)c(=O)oc3c2C)OC1(C)C
IC50 (second compound 0.0316 µM): 2.41 µM
IC50 (second compound 0.1 µM): 3.34 µM
IC50 (second compound 0.316 µM): 4.39 µM
IC50 (second compound 1 µM): 2.9 µM
IC50 (second compound 3.16 µM): 5.23 µM
IC50 (second compound 10 µM): 3.52 µM
viability, T/C [1]: 76%
viability, T/C [2]: 77%
viability, T/C [3]: 73.6%
viability, T/C [4]: 73.4%
viability, T/C [5]: 42.9%
viability, T/C [6]: 16.6%
viability, T/C [7]: 76.6%
viability, T/C [8]: 74.8%
viability, T/C [9]: 43.4%
viability, T/C [10]: 86.7%
viability, T/C [11]: 51.9%
viability, T/C [12]: 12.8%
viability, T/C [13]: 48.3%
viability, T/C [14]: 71.4%
viability, T/C [15]: 58.7%
viability, T/C [16]: 71.2%
viability, T/C [17]: 68.5%
viability, T/C [18]: 15.9%
viability, T/C [19]: 86.4%
viability, T/C [20]: 80.6%
viability, T/C [21]: 48.5%
viability, T/C [22]: 74.6%
viability, T/C [23]: 51.6%
viability, T/C [24]: 13%
viability, T/C [25]: 76.3%
viability, T/C [26]: 76.8%
viability, T/C [27]: 89.3%
viability, T/C [28]: 79.1%
viability, T/C [29]: 76.3%
viability, T/C [30]: 16.1%
viability, T/C [31]: 82%
viability, T/C [32]: 86.4%
viability, T/C [33]: 62.1%
viability, T/C [34]: 86.4%
viability, T/C [35]: 53.8%
viability, T/C [36]: 13%

COc1cc(C2c3cc4c(cc3C(OC3OC5COC(C)OC5C(O)C3O)C3COC(=O)C23)OCO4)cc(OC)c1O (stereo not drawn) + Cc1cccc(N(C)C(=O)C2C(O)CCN2c2nc(C)cc(C(F)(F)F)c2C#N)c1
IC50 (second compound 0.0316 µM): 0.0551 µM
IC50 (second compound 0.1 µM): 0.0566 µM
IC50 (second compound 0.316 µM): 0.0721 µM
IC50 (second compound 1 µM): 0.0486 µM
IC50 (second compound 3.16 µM): 0.0475 µM
IC50 (second compound 10 µM): 0.045 µM
viability, T/C [1]: 68.8%
viability, T/C [2]: 29.6%
viability, T/C [3]: 15.7%
viability, T/C [4]: 17.2%
viability, T/C [5]: 11.5%
viability, T/C [6]: 5.61%
viability, T/C [7]: 65.9%
viability, T/C [8]: 34.4%
viability, T/C [9]: 11.6%
viability, T/C [10]: 20.5%
viability, T/C [11]: 13.7%
viability, T/C [12]: 6.16%
viability, T/C [13]: 71.5%
viability, T/C [14]: 41.7%
viability, T/C [15]: 15.8%
viability, T/C [16]: 16.7%
viability, T/C [17]: 12.2%
viability, T/C [18]: 7.12%
viability, T/C [19]: 63.2%
viability, T/C [20]: 26.5%
viability, T/C [21]: 18.9%
viability, T/C [22]: 19.1%
viability, T/C [23]: 14.4%
viability, T/C [24]: 6.32%
viability, T/C [25]: 57.4%
viability, T/C [26]: 38.2%
viability, T/C [27]: 18%
viability, T/C [28]: 15.7%
viability, T/C [29]: 12.5%
viability, T/C [30]: 6.13%
viability, T/C [31]: 59.6%
viability, T/C [32]: 26.6%
viability, T/C [33]: 22.6%
viability, T/C [34]: 17.6%
viability, T/C [35]: 11.6%
viability, T/C [36]: 5.64%

— PubChem BioAssay AID1963839 (Molecular Pharmacology Branch, DTP, NCI, 2024)
